Data: ChEMBL document CHEMBL1817550, “Synthesis and biological evaluation of some novel cyclic-imides as hypoglycaemic, anti-hyperlipidemic agents” (Eur J Med Chem, 2011)
The source made the active and inactive calls. The calls are words filed in the database; no cut-off is given here.

Assays:
[1] = system: Rattus norvegicus; experiment: Antihyperlipidemic activity in high-cholesterol diet-induced hypercholesterolemia Swiss albino rat model assessed as reduction in serum cholesterol level at 10 mg/kg/day, po administered via gavage simultaneously with diet cocktail for 14 days by UV-spectrophotometry relative to untreated control; assay type: functional; details: 336 h
[2] = system: Rattus norvegicus; experiment: Antihyperlipidemic activity in streptozotocin-induced diabetic rat model assessed as serum triglyceride level at 10 mg/kg/day, po dosed via gavage for 14 days administered 3 days after streptozotocin challenge by UV-spectrophotometry; assay type: functional
[3] = system: Rattus norvegicus; experiment: Antihyperlipidemic activity in streptozotocin-induced diabetic rat model assessed as serum cholesterol level at 10 mg/kg/day, po dosed via gavage for 14 days administered 3 days after streptozotocin challenge by UV-spectrophotometry; assay type: functional
[4] = system: Rattus norvegicus; experiment: Hypoglycemic activity in streptozotocin-induced diabetic rat model assessed as decrease in serum glucose level at 10 mg/kg/day, po dosed via gavage for 14 days administered 3 days after streptozotocin challenge by UV-spectrophotometry; assay type: functional
[5] = Toxicity in intra-gastrically dosed healthy rat administered as single dose; assay type: organism-based; details: in vivo, po
[6] = system: Rattus norvegicus; experiment: Toxicity in healthy rat at 2000 to 7000 mg/kg, po measured after 24 hrs; assay type: organism-based; parameters: dose 2000-7000 mg/kg, route oral; details: in vivo
[7] = system: Rattus norvegicus; experiment: Toxicity in healthy rat assessed as incidence of less responsive state at 2000 to 7000 mg/kg, po measured after 2 to 6 hrs; assay type: organism-based; parameters: route oral; details: in vivo
[8] = system: Rattus norvegicus; experiment: Toxicity in healthy rat assessed as incidence of mortality at 2000 to 7000 mg/kg, po measured after 24 hrs; assay type: organism-based; parameters: dose 2000-7000 mg/kg, route oral; details: in vivo
[9] = system: Rattus norvegicus; experiment: Antihyperlipidemic activity in high-cholesterol diet-induced hypercholesterolemia Swiss albino rat model assessed as reduction in serum cholesterol level at 160 mg/kg/day, po administered via gavage simultaneously with diet cocktail for 14 days by UV-spectrophotometry relative to untreated control; assay type: functional, organism-based

Compound	inhibition in vivo at 10 mg/kg/day [1] [%]	Activity [2] [mg/dL]	Activity [3] [mg/dL]	inhibition in vivo at 10 mg/kg/day [4] [%]	LD50 [5] [mg/kg]	Activity [6]	Activity [7]	Activity [8]	Activity [9]
O=C1c2c(Cl)c(Cl)c(Cl)c(Cl)c2C(=O)N1c1ccccn1	9	120	140.3	–	–	–	–	–	–
O=C1c2c(Br)c(Br)c(Br)c(Br)c2C(=O)N1c1ccncc1	13	120	171	–	–	–	–	–	–
O=C1c2c(Cl)c(Cl)c(Cl)c(Cl)c2C(=O)N1c1ccncc1	44	110.6	129.5	3	–	–	–	–	–
O=C1c2c(Cl)c(Cl)c(Cl)c(Cl)c2C(=O)N1CCN1CCOCC1	46	100.3	105.7	10	–	–	–	–	–
O=C1[C@@H]2[C@H](C(=O)N1CCN1CCOCC1)C1(Cl)C(Cl)=C(Cl)C2(Cl)C1(Cl)Cl	7	91.33	152.3	–	–	–	–	–	–
O=C1[C@@H]2[C@H](C(=O)N1c1ccccn1)C1(Cl)C(Cl)=C(Cl)C2(Cl)C1(Cl)Cl	33	94.33	129.6	25	–	–	–	–	–
O=C1[C@@H]2[C@H](C(=O)N1Cc1ccccn1)C1(Cl)C(Cl)=C(Cl)C2(Cl)C1(Cl)Cl	4	123	149.3	–	–	–	–	–	–
O=C1c2c(Br)c(Br)c(Br)c(Br)c2C(=O)N1c1ncccn1	19	110.6	196	28	–	–	–	–	–
O=C1c2cc(Cl)c(Cl)cc2C(=O)N1CCc1ccccn1	56	71.6	92.33	55	5260	Non-toxic	Toxic	Non-toxic	Active
O=C1c2c(Br)c(Br)c(Br)c(Br)c2C(=O)N1CCN1CCOCC1	7	80	161.3	20	–	–	–	–	–
O=C1[C@@H]2[C@H](C(=O)N1CCc1ccccn1)C1(Cl)C(Cl)=C(Cl)C2(Cl)C1(Cl)Cl	53	71	89.75	7	–	–	–	–	–
O=C1c2cc(Cl)c(Cl)cc2C(=O)N1c1ccncc1	19	112	146	–	–	–	–	–	–
O=C1c2cc(Cl)c(Cl)cc2C(=O)N1CCN1CCOCC1	42	97.66	88.66	30	–	–	–	–	–
COc1ccc(Cl)cc1C(=O)NCCc1ccc(S(=O)(=O)NC(=O)NC2CCCCC2)cc1 [GLYBURIDE]	11	87.6	102.6	52	–	–	–	–	–
O=C1[C@@H]2[C@H](C(=O)N1c1ccncc1)C1(Cl)C(Cl)=C(Cl)C2(Cl)C1(Cl)Cl	41	77	169.3	27	–	–	–	–	–
O=C1c2c(Cl)c(Cl)c(Cl)c(Cl)c2C(=O)N1CCc1ccccn1	48	80	107.2	–	–	–	–	–	–
O=C1c2c(Br)c(Br)c(Br)c(Br)c2C(=O)N1c1ccccn1	21	100.3	150.3	–	–	–	–	–	–
O=C1c2cc(Cl)c(Cl)cc2C(=O)N1c1ccccn1	17	90.5	126.2	3	–	–	–	–	–
O=C1[C@@H]2[C@H](C(=O)N1c1ncccn1)C1(Cl)C(Cl)=C(Cl)C2(Cl)C1(Cl)Cl	44	89.33	162.3	–	–	–	–	–	–
O=C1c2c(Br)c(Br)c(Br)c(Br)c2C(=O)N1Cc1ccccn1	54	82.66	92.33	35	5010	Non-toxic	Toxic	Non-toxic	Active
O=C1c2c(Cl)c(Cl)c(Cl)c(Cl)c2C(=O)N1Cc1ccccn1	47	82.66	105	23	–	–	–	–	–
O=C1c2cc(Cl)c(Cl)cc2C(=O)N1Cc1ccccn1	11	93	155.3	–	–	–	–	–	–
O=C1c2c(Cl)c(Cl)c(Cl)c(Cl)c2C(=O)N1c1ncccn1	3	123	117	5	–	–	–	–	–
O=C1c2cc(Cl)c(Cl)cc2C(=O)N1c1ncccn1	58	70.66	96	32	4240	Non-toxic	Toxic	Non-toxic	Active
O=C1c2c(Br)c(Br)c(Br)c(Br)c2C(=O)N1CCc1ccccn1	20	91.33	164.6	18	–	–	–	–	–
